Test results taken from US8636978B2, “Cyclized NGR peptide compounds, compositions, and methods of their use” (The United States of America, as Represented by the …, priority 2008, dated 2014).
Residues, ends and D or L forms follow the SMILES beside them. No end group written: not given here. *: point of attachment. OregonGreen488(6-carbonyl) = O=C1OC2(c3cc(F)c(O)cc3Oc3cc(O)c(F)cc32)c2cc(C(=O)*)ccc21

What was measured:
[1] = test system: CD13-positive HT-1080 cells
HT-1080 (CD13+) cells = assay: Cell binding by epifluorescent microscopy, CD13-positive cells; assay type: cell-based, human; settings: 37° C.
Experimental: (§1) Human fibrosarcoma (HT-1080) and human adenocarcinoma (MCF7) cells were purchased from American Type Culture Collection (ATCC, Manassas, Va.). HT-1080 cells were grown in MEME (ATCC) supplemented with 10% fetal bovine serum (ATCC), and MCF7 cells were grown in the same culture medium with the addition of 0.01 mg/mL bovine insulin (Sigma-Aldrich, St. Louis, Mo.). Both cell lines were maintained in a 5% CO2 incubator at 37° C. Anti-CD13 monoclonal antibody (WM15, Alexa Fluor 488-conjugated) was obtained from AbD Serotec (Raleigh, N.C.).
(§2) Cellular binding of cK(OG)NGRE to the CD13/APN marker was assessed by plating HT-1080 (CD13+) and MCF7 (CD13−) cells in eight-chambered slides (LabTekII, Nunc, Rochester, N.Y.) at a concentration of 15,000 cells/well. After 24 h, cells were washed once with phosphate-buffered saline (PBS) and incubated in complete culture media at 37° C. for 30 min with either cK(OG)NGRE (20 μM) or the anti-CD13 antibody (final concentration 2.5 μg/mL). Slides were washed twice with PBS for 5 min, fixed in 4% paraformaldehyde for 20 min, and mounted with Prolong Gold antifade reagent with DAPI (Invitrogen, Carlsbad, Calif.) and imaged with an epifluorescent microscope (Zeiss Axio Imager.M1, Thornwood, N.Y.) after 24 h. […]

MCF7 (CD13−) cells = assay: Cell binding by epifluorescent microscopy, CD13-negative cells; assay type: cell-based, human; settings: cK(OG)NGRE 20 μM or anti-CD13 antibody 2.5 μg/mL, 37° C., 30 min
Experimental: as §1, §2

| Molecule | EC50 [1] [µM] | in vitro binding to HT-1080 cells (fluorescence micrographs) (HT-1080 (CD13+) cells; cK(OG)NGRE 20 μM or anti-CD13 antibody 2.5 μg/mL, 30 min) | localization of fluorescence in HT-1080 cells (HT-1080 (CD13+) cells; epifluorescent microscopy, 30 min incubation) | in vitro binding to MCF7 cells (fluorescence micrographs) (MCF7 (CD13−) cells) |
| --- | --- | --- | --- | --- |
| N=C(N)NCCC[C@@H]1NC(=O)CNC(=O)[C@H](CC(N)=O)NC(=O)[C@H](CCCCNC(=O)c2ccc3c(c2)C2(OC3=O)c3cc(F)c(O)cc3Oc3cc(O)c(F)cc32)NC(=O)[C@H](CCC(N)=O)NC1=O [cK(OG)NGRE] (cyclo(K(OregonGreen488(6-carbonyl))NGRQ)) | 61 | clearly demonstrated binding | internalization of the peptide | minimal binding |
| KNGRE [reference compound] | 220 | – | – | – |
